IC50 data for 77 compounds are collected here from article PMC7018972, “Novel and selective inactivators of Triosephosphate isomerase with anti-trematode activity” (Scientific Reports, 2020).

Structures are written as SMILES.

Sequence of Fasciola hepatica TIM (FhTIM) (S4UI50 entry or part of it): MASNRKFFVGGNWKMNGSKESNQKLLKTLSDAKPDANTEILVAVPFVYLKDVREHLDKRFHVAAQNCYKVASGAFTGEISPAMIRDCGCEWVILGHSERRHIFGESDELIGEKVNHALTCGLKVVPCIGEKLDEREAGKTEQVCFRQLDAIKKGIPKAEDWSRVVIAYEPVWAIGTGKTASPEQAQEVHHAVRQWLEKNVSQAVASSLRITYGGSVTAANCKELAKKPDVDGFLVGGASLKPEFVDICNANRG

The target in one assay is Fasciola hepatica TIM (FhTIM) (Fasciola hepatica, UniProt S4UI50). The assay can be described thus: Inhibition of recombinant FhTIM, coupled enzyme assay. The class given is biochemical. Particulars: Table 1S, screening of 340 compounds in FhTIM; table head prints no unit, µM per b8/b9. On the procedure:
Expression and purification of proteins: FhTIM, RabbitTIM and HsTIM were expressed in Escherichia coli and purified as described in the literature[31],[37]. […] Before use, extensive dialysis against 100 mM triethanolamine/10 mM EDTA (pH 7.4) was performed. […] Enzymatic activity was determined following the conversion of glyceraldehydes-3-phosphate into dihydroxyacetone phosphate in a coupled enzyme assay. The decrease in absorbance at 340 nm was followed in a multiplate reader VarioskanTM Flash Multimode Reader (Thermo ScientificTM, Waltham, MA, USA) at 38 °C. The reaction mixture (1 mL, pH 7.4) contained 100 mM triethanolamine, 10 mM EDTA, 0.2 mM NADH, 1 mM glyceraldehydes-3-phosphate and 0.9 units of α-glycerol phosphate dehydrogenase. The reaction was initiated by the addition of 5 ng/mL of the TIM of interest. For the inhibition studies, TIM was incubated at a concentration of 5 mg/mL in a buffer containing 100 mM triethanolamine, 10 mM EDTA, pH 7.4 and 10% of DMSO at 37 °C for 1 h. The mixture also contained the compounds, dissolved in DMSO, at the indicated concentrations. After 1 h, 10 µL were withdrawn and added to a final volume of 100 µL of the reaction mixture for the activity assay. The inhibition assay was performed in a 96-well microplate. […] The experiments were performed in triplicate in two independent experiments.
In general, IC50 refers to the concentration needed to halve the response being measured. In the case of `Clc1ccc(-c2c[se]c(=NN=CC=Cc3ccco3)n2CCN2CCOCC2)cc1` [Compound 1097], the half-maximal inhibitory concentration (IC50) is 50 to 100 µM.

The assay is the same for the next values; noted with them: Table 1S, screening of 340 compounds in FhTIM; table head prints no unit, µM per b8/b9; read-out: IC50.
Consider `Cc1ccc2c(c1)nc(-c1ccc(N(C)C)cc1)n2CCc1ccccc1` [Compound 696], for which the IC50 is above 100 µM.
Still for that read-out and setting: the result for `O=C1CCCC2=C1C(c1ccc(C(=O)O)cc1)c1ccc3ccccc3c1N2` (centres unmarked) [Compound 698] reads above 100 µM.
Same read-out and setting: the result for `O=C1CCCC2=C1C(c1cccc(Br)c1)c1ccc3ccccc3c1N2` (centres unmarked) [Compound 699] reads above 100 µM; that for `CC(=NNC(N)=O)c1cccc(C(C)=NNC(N)=O)n1` [Compound 701], above 100 µM; that for `O=[N+]([O-])c1c(Cl)cc2c(no[n+]2[O-])c1N1CCN(c2c([N+](=O)[O-])c(Cl)cc3c2no[n+]3[O-])CC1` [Compound 704], above 100 µM.
`NC1=NS(=O)(=O)N(CCC2CCCCC2)c2nc(-c3ccc(F)cc3)[nH]c21` [Compound 706]: the half-inhibitory concentration (IC50) is above 100 µM.
Same read-out and setting: to `COc1ccc(CN2c3nc(-c4ccccc4OC)[nH]c3C(N)=NS2(=O)=O)cc1` [Compound 707] belongs above 100 µM; to `NNC(=O)c1ccc2c(c1)OCO2` [Compound 711], above 100 µM.
The same measure, in the same setting: the result for `Cc1ncc([N+](=O)[O-])n1CCI` [Compound 712] reads above 100 µM; that for `NNC(=O)c1ccccn1` [Compound 717], above 100 µM.
On the same count and under the same terms, the result for `NC1=NS(=O)(=O)N=C(N)C1N` [Compound 723] reads above 100 µM; that for `O=[N+]([O-])c1cc(CI)ccc1F` [Compound 769], 100 µM.
For the compound `O=C(CBr)c1csc(=NN=Cc2ccccc2)n1-c1ccccc1` [Compound 775], the IC50 was above 100 µM.
Still for that read-out and setting: the result for `O=C(CBr)C(=O)CSC(=NN=Cc1ccccc1)Nc1ccccc1` [Compound 777] reads above 100 µM; that for `O=S(=O)(O)c1ccc(C=NN=c2scc(-c3csc(=NN=Cc4ccc(S(=O)(=O)O)o4)n3-c3ccccc3)n2-c2ccccc2)o1` [Compound 781], above 100 µM.
The same measure, in the same setting: the result for `C=CCn1c(-c2csc(=NN=Cc3ccccc3)n2-c2ccccc2)csc1=NN=CC=Cc1ccco1` [Compound 782] reads above 100 µM; that for `C=CCn1c(-c2csc(=NN=Cc3ccccc3)n2-c2ccccc2)csc1=NN=Cc1ccc2ccccc2c1` [Compound 783], above 100 µM.
Same read-out and setting: to `O=S(=O)(O)c1ccc(C=NN=c2scc(-c3csc(=NN=Cc4ccccc4)n3-c3ccccc3)n2-c2ccccc2)o1` [Compound 784] belongs above 100 µM; to `C=CCn1c(-c2csc(=NN=Cc3ccc(S(=O)(=O)O)o3)n2-c2ccccc2)csc1=NN=CC=Cc1ccco1` [Compound 785], above 100 µM.
As to `C=CCNC(=S)NN=C(C)c1cc2ccccc2o1` [Compound 787], the concentration for half-maximal inhibition (IC50) was above 100 µM.
Turning to `C=CCNC(=S)NN=Cc1ccc(C)o1` [Compound 788], the IC50 was above 100 µM.
For the compound `C=CCn1c(C(=O)O)csc1=NN=C/C=C/c1ccc(C)o1` [Compound 789], the IC50 was above 100 µM.
Turning to `C=CCn1c(-c2csc(=NN=CC=Cc3ccccc3)n2-c2ccccc2)csc1=NN=CC=Cc1ccco1` [Compound 791], the IC50 is above 100 µM.
Still for that read-out and setting: to `O=C(C=CC=Cc1ccco1)C=CC=Cc1ccco1` [Compound 793] belongs above 100 µM.
Still for that read-out and setting: the result for `O=C(C=Cc1cccs1)C=Cc1cccs1` [Compound 796] reads above 100 µM; that for `O=C(C=CC=Cc1ccccc1)C=CC=Cc1ccccc1` [Compound 797], above 100 µM.
On the same count and under the same terms, to `O=C(C=CC=Cc1cccs1)C=CC=Cc1cccs1` [Compound 798] belongs above 100 µM; to `O=C1C(=Cc2ccccc2)CCCC1=Cc1ccccc1` [Compound 799], 100 µM.
Consider `O=C1C(=CC=Cc2ccccc2)CCCC1=CC=Cc1ccccc1` [Compound 800], for which the IC50 was above 100 µM.
Same read-out and setting: to `O=C1C(=Cc2cccs2)CCCC1=Cc1cccs1` [Compound 807] belongs above 100 µM; to `O=C1C(=Cc2ccco2)CCCC1=Cc1ccco1` [Compound 808], above 100 µM.
`CC(C=CC(=O)C=CC(C)=Cc1ccco1)=Cc1ccco1` [Compound 809]: the concentration for half-maximal inhibition (IC50) was above 100 µM.
The same measure, in the same setting: to `Nc1nc(-c2ccccc2)cs1` [Compound 810] belongs above 100 µM; to `N#CSCC(=O)c1ccccc1` [Compound 811], above 100 µM.
The same measure, in the same setting: the result for `Nc1nc(-c2ccc(Cl)cc2)cs1` [Compound 813] reads above 100 µM; that for `C(=CC=NN=c1scc(-c2ccccc2)n1-c1ccccc1)C=Cc1ccco1` [Compound 814], above 100 µM; that for `Cc1c(C(=O)NN=Cc2ccccc2)no[n+]1[O-]` [Compound 824], above 100 µM.
The same measure, in the same setting: the result for `C=CCn1c(-c2ccc(OC)cc2)csc1=NN=CC=Cc1ccco1` [Compound 871] reads above 100 µM; that for `C=CCn1c(-c2ccc(Cl)cc2)csc1=NN=CC=Cc1ccc(C)o1` [Compound 872], above 100 µM.
With `C(=Cc1ccco1)C=NN1CCN(Cc2ccccc2)CC1` [Compound 874], the IC50 was above 100 µM.
Still for that read-out and setting: the result for `C=CCn1c(-c2ccccc2)csc1=NN=CC=Cc1cccs1` [Compound 875] reads 50 to 100 µM.
Turning to `C=CCn1c(-c2ccccc2)csc1=NN=Cc1ccc(S(=O)(=O)O)o1` [Compound 876], the half-maximal inhibitory concentration (IC50) was above 100 µM.
`CC(/C=N/N1CCSCC1)=C\c1ccco1` [Compound 878]: the IC50 was in the range of 50 to 100 µM.
Same read-out and setting: to `O=C1C(=C2Nc3ccccc3C2=O)Nc2ccccc21` [Compound 879] belongs above 100 µM; to `O=C(/C=C/c1ccco1)c1ccccc1O` [Compound 881], 100 µM.
For `C=CCNC(=S)NN=C(C=CC=Cc1ccc(C)o1)C=CC=Cc1ccc(C)o1` [Compound 900], the IC50 was above 100 µM.
For the compound `Clc1ccc(-c2csc(NN=CC=Cc3ccco3)n2)cc1` [Compound 901], the concentration for half-maximal inhibition (IC50) is above 100 µM.
The same measure, in the same setting: to `Cc1ccc(C=CC=NN2CCN(CC=Cc3ccccc3)CC2)o1` [Compound 903] belongs above 100 µM; to `C=CCn1c(C)csc1=NN=Cc1ccc2ccccc2c1` [Compound 904], above 100 µM; to `C=CCn1c(-c2ccc([N+](=O)[O-])cc2)csc1=NN=C/C=C/c1cccs1` [Compound 907], above 100 µM.
Same read-out and setting: the result for `C=CCn1c(-c2ccccc2)csc1=NN=Cc1ccc2ccccc2c1` [Compound 908] reads 50 to 100 µM; that for `Clc1ccc(-c2csc(N=CC=Cc3ccco3)n2)cc1` [Compound 910], above 100 µM.
`C=CCNC(=S)NN=Cc1ccsc1` [Compound 911]: the IC50 was above 100 µM.
On the same count and under the same terms, the result for `C(=Cc1ccco1)C=NN1CCN(CC=Cc2ccccc2)CC1` [Compound 912] reads above 100 µM.
The same measure, in the same setting: the result for `C=CCn1c(C(=O)O)csc1=NN=Cc1ccc(S(=O)(=O)O)o1` [Compound 913] reads above 100 µM.
Same read-out and setting: the result for `COc1cc(/C=C/C(=O)CC(=O)/C=C/c2cc(OC)c3oc(=O)cc(C)c3c2)ccc1O` [Compound 915] reads above 100 µM; that for `O=C1C(=CC=Cc2cccs2)CCC1=CC=Cc1cccs1` [Compound 1018], above 100 µM.
With `O=C1/C(=C/C=C/c2ccco2)CCC/C1=C\C=C\c1ccco1` [Compound 1019], the IC50 was 50 to 100 µM.
The same measure, in the same setting: the result for `O=C(C(O)c1ccccc1)C(O)c1ccccc1` (centres unmarked) [Compound 1083] reads above 100 µM; that for `S=C(NCc1ccccc1)NCc1ccccc1` [Compound 1085], above 100 µM; that for `O=c1cc(O)n(Cc2ccccc2)c(=S)n1Cc1ccccc1` [Compound 1088], above 100 µM.
On the same count and under the same terms, to `C=CCn1c(C(=O)N2CCN(C)CC2)csc1=NN=C/C=C/c1ccco1` [Compound 1093] belongs above 100 µM.
On the same count and under the same terms, the result for `Nc1nc(-c2ccc([N+](=O)[O-])cc2)cs1` [Compound 1098] reads above 100 µM; that for `C=CCn1c(C(=O)CN2CCN(c3ccccc3)CC2)csc1=NN=CC=Cc1ccco1` [Compound 1099], above 100 µM; that for `C=CCn1c(C(=O)NN2CCN(CC=Cc3ccccc3)CC2)csc1=NN=CC=Cc1ccco1` [Compound 1100], above 100 µM.
Regarding `CN(C)c1ccncc1` [Compound 1101], the IC50 is above 100 µM.
The same measure, in the same setting: to `Cc1ccc(C=CC=CC(C=CC=Cc2ccc(C)o2)=NN2CCN(CC=Cc3ccccc3)CC2)o1` [Compound 1102] belongs above 100 µM.
For the compound `Cc1csc(=NN=Cc2cccs2)n1-c1ccccc1` [Compound 1103], the IC50 was above 100 µM.
On to `CC(=O)Nc1ccc(C#N)cc1` [Compound 1104], for which the half-maximal inhibitory concentration (IC50) is above 100 µM.
Same read-out and setting: to `NC(=NO)c1ccc(Br)cc1` [Compound 1105] belongs above 100 µM.
On the same count and under the same terms, the result for `CC(=O)Nc1ccc(C=NO)cc1` [Compound 1106] reads above 100 µM; that for `ON=Cc1ccc(Br)cc1` [Compound 1107], above 100 µM.
Turning to `Cc1ccc(/C=C/C=C/C(=O)/C=C/C=C/c2ccc(C)o2)o1` [Compound 1108], the 50% inhibitory concentration (IC50) is above 100 µM.
On to `C=CCn1c(-c2ccccc2)csc1=NN=Cc1ccco1` [Compound 1109], for which the IC50 is above 100 µM.
Still for that read-out and setting: the result for `C=CCn1c(C)csc1=NN=Cc1ccco1` [Compound 1110] reads above 100 µM; that for `C=CCn1c(C(=O)CN2CCN(CC=Cc3ccccc3)CC2)csc1=NN=CC=Cc1ccco1` [Compound 1112], above 100 µM.
